In assay [1] the target is T1, KRAS-G12C (C51S/C80L/C118S) (Homo sapiens, UniProt P01116, C118S/C51S/C80L/G12C).
T1 construct: N-terminal biotin-acceptor peptide […]
The assay can be described thus: SOS-catalyzed nucleotide exchange assay (Procedure A, TR-FRET). It is filed as biochemical. To be noted: 60 min preincubation, SOS + GTP, read-out: KRAS G12C GNE IC50. In short, it runs like this: (§1)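 Preformed biotinylated RAS–Bodipy-GDP/Tb-streptavidin complex preincubated with compound 60 min at room temperature, then SOS plus GTP (3 mM final) added. Exchange times: G13D 30 min, G12C/D 60 min, G12V 90 min. Final RAS/SOS: G12C 3 nM/40 nM, G12D 1 nM/40 nM, G12V 1.25 nM/160 nM, G13D 1.25 nM/0 nM. TR-FRET 520/495 ratio, four-parameter fit.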
(In general: In TR-FRET formats the signal depends on donor and acceptor labels being close together.)

A further assay concerns the target T2, KRAS-G12D (Homo sapiens, UniProt P01116, G12D).
T2 construct: N-terminal biotin-acceptor peptide […]
Described as above. The format is biochemical. Conditions: 60 min preincubation, SOS + GTP, read-out: KRAS G12D GNE IC50. In short, it runs like this: as §1

A further assay addresses T3, KRAS-G12V (Homo sapiens, UniProt P01116, G12V).
T3 construct: N-terminal biotin-acceptor peptide […]
Described as above. It is filed as biochemical. Conditions: 60 min preincubation, SOS + GTP, read-out: KRAS G12V GNE IC50. In short, it runs like this: as §1

For the next assay, the target named is T4, KRAS-G13D (Homo sapiens, UniProt P01116, G13D).
T4 construct: N-terminal biotin-acceptor peptide […]
The assay is described as above. The format is biochemical. To be noted: 60 min preincubation, GTP, read-out: KRAS G13D GNE IC50. In short, it runs like this: as §1

The target in a further assay is HRAS (Homo sapiens, UniProt P01112). Described as above. The format is biochemical. To be noted: 60 min preincubation, SOS + GTP, read-out: HRAS GNE IC50. In short, it runs like this: (§2)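 Biotinylated WT-sequence HRAS or NRAS (1.25 nM final) loaded with Bodipy-GDP plus Tb-streptavidin, preincubated 60 min with compound (10-point, 3-fold). Exchange started with human SOS (40 nM) and 3 mM GTP, 60 min at room temperature, pH 7.5 Mg buffer. TR-FRET 520/495 ratio normalised to DMSO and saturating inhibitor, four-parameter fit.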

The target in the next assay is NRAS (Homo sapiens, UniProt P01111). The assay is described as above. The format is biochemical. Conditions: 60 min preincubation, SOS + GTP, read-out: NRAS GNE IC50. In short, it runs like this: as §2
In assay [2] the test system is PANC08.13 cells (homozygous KRAS-G12D activating mutation). Description: Cellular phospho-ERK assay in G12D cell line. Conditions: Homo sapiens, PANC-08-13, 2 hours compound incubation, ratio of p-ERK vs. total ERK, read-out: PANC 0813 pERK IC50. It is filed as cell-based. In short, it runs like this: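 Cells (10,000-15,000/well) were seeded overnight, then treated for 2 h at 37 °C with a 10-point 1:3 titration from 30 μM final. Lysates were assayed by AlphaLISA SureFire Ultra multiplex, with the p-ERK/total-ERK ratio as read-out; IC50 came from a 4-parameter logistic fit.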

Assay [3] relates to SW620 cells (homozygous KRAS-G12V activating mutation). The assay can be described thus: Cellular phospho-ERK assay in G12V cell line. It is filed as cell-based. Conditions: Homo sapiens, SW-620, 2 hours compound incubation, ratio of p-ERK vs. total ERK, read-out: SW620 pERK IC50. Here is the method: Procedure for Cellular Phospho-ERK Assay in G12D and G12V Cell Lines
PANC08.13 cells (ATCC® CRL-2551™), containing homozygous KRAS-G12D activating mutation, were cultured in growth medium made of RPMI1640-GlutaMAX™—I (ThermoFisher Scientific 61870) containing 15% heat inactivated fetal bovine serum (ThermoFisher Scientific 10091148)). SW620 cells (ATCC® […]), containing homozygous KRAS-G12V activating mutation, were cultured in growth medium that contains RPMI 1640-GlutaMAX™—I (ThermoFisher Scientific 61870) containing 10% heat inactivated fetal bovine serum (ThermoFisher Scientific 10091148).
Cells for the assay were harvested in growth medium after TrypLE (ThermoFisher scientific 12604021) digestion and were seeded in a 384-well collagen coated cell culture plate (Corning 356702) at a density of 10,000-15,000 cells/20 uL/well, and incubated at 37° C., 5% CO2 overnight. The compound (with 10 mM stock concentration) dose-response titrations were prepared [30 μM final ERK detection assay concentration and 1:3 dilutions, 10-point dose response] and appropriate amounts (270 nL) of test compounds were dispensed in a 384-well intermediate plate using an Echo 550 liquid handler. 30 uL/well of RPMI medium 1640-GlutaMAX™—I was added to the intermediate plate and the contents of the intermediate plate (10 uL/well) were then transferred to the 384-well collagen coated cell culture plate, which was incubated at 37° C., 5% CO2 for 2 hours. After removal of medium from the collagen coated cell culture plate, cells were lysed in lysis buffer from Alpha SureFire® Ultra™ Multiplex p-ERK and total ERK assay kit (PerkinElmer MPSU-PTERK) containing Halt™ Protease and Phosphatase inhibitor cocktail (ThermoFisher Scientific 78446) at room temperature with constant shaking at 300 rpm for 30 minutes. The cell lysates were then transferred to an OptiPlate-384 plate (PerkinElmer 6005620), and the phosphorylation of ERK (p-ERK) and total ERK levels were detected by Alpha SureFire® Ultra™ Multiplex p-EEK kit and total ERK assay kit (PerkinElmer MPSU-PTERK) following the manufacturer's protocol. Assay plates were read on a EnVision Multimode Plate Reader (PerkinElmer), and the ratio of p-ERK vs. total ERK in each well was used as the final readout. Dose response curves were analyzed using a 4-parameter logistic model to calculate IC50 values using Spotfire software.

Some results are limits rather than exact numbers.

T1 sequence (P01116 with tags, fused parts or gaps isoform P01116-2 G12C/C51S/C80L/C118S): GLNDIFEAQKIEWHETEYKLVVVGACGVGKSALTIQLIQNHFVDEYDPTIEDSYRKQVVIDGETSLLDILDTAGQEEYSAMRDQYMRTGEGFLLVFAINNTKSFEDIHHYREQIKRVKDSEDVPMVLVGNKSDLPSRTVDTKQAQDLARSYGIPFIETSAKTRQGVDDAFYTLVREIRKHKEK
T2 sequence (P01116 with tags, fused parts or gaps isoform P01116-2 G12D): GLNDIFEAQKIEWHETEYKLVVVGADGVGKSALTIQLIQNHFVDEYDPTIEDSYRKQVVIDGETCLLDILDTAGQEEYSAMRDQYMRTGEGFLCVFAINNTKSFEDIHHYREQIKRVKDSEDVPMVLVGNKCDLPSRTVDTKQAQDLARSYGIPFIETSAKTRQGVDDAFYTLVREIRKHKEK
T4 sequence (P01116 with tags, fused parts or gaps isoform P01116-2 G13D): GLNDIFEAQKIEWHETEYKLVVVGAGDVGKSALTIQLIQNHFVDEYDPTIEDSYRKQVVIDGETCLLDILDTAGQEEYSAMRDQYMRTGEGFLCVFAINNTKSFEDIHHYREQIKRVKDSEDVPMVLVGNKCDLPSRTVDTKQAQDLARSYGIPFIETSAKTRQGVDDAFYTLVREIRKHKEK
Sequence of NRAS (P01111 with tags, fused parts or gaps): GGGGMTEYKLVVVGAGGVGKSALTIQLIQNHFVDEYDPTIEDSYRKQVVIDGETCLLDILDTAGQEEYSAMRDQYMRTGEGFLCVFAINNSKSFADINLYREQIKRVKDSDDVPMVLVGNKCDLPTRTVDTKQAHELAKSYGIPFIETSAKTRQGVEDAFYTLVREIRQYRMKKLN
Sequence of HRAS (P01112 with tags, fused parts or gaps): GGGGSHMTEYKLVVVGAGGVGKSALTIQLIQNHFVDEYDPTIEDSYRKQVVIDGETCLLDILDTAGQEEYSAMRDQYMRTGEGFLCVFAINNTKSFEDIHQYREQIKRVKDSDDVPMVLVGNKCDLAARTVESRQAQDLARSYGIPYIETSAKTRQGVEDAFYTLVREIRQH
T3 sequence (P01116 with tags, fused parts or gaps isoform P01116-2 G12V): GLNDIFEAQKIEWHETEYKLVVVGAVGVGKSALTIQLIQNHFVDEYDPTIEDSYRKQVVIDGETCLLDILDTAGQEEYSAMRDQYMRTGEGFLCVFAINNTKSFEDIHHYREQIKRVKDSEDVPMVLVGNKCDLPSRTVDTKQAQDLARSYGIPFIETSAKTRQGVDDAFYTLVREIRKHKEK

Usually IC50 stands for the concentration at which inhibition is half-maximal. As to `CC(C)(C)NC[C@@]1(COc2nc(N3CCCOCC3)c3cc(Cl)c(-c4ccc(F)c5sc(N)c(C#N)c45)c(F)c3n2)CC1(F)F` [compound 25, 2-amino-4-(2-(((R)-1-((tert-butylamino)methyl)-2,2-difluorocyclopropyl)methoxy)-6-chloro-8-fluoro-4-(1,4-oxazepan-4-yl)quinazolin-7-yl)-7-fluorobenzo[b]thiophene-3-carbonitrile], the IC50 is 28.6 nM in assay [1]; 247 nM at KRAS-G12D; 17.7 nM at KRAS-G12V; 52.9 nM on KRAS-G13D; more than 11100 nM on HRAS; more than 11100 nM on NRAS. The values for the IC50 in assay [2] and in assay [3] were 1310 nM and 407 nM, respectively.

As for `Cc1cc(N)nc(-c2c(Cl)cc3c(N4CCCOCC4)nc(OC[C@@]45CCCN4C[C@H](F)C5)nc3c2F)c1C(F)(F)F` [compound 40, 6-(6-chloro-8-fluoro-2-(((2R,7aS)-2-fluorotetrahydro-1H-pyrrolizin-7a(5H)-yl)methoxy)-4-(1,4-oxazepan-4-yl)quinazolin-7-yl)-4-methyl-5-(trifluoromethyl)pyridin-2-amine], the IC50 in assay [1] was 83.3 nM; on KRAS-G12D, 351 nM; at KRAS-G12V, 78.2 nM; on KRAS-G13D, 204 nM; at HRAS, more than 11100 nM; on NRAS, more than 11100 nM. Moreover, the IC50 in assay [2] is 807 nM; in assay [3], 628 nM.

For the molecule `CC1(F)COCCN(c2nc(OC[C@@]34CCCN3C[C@H](F)C4)nc3c(F)c(-c4ccc(F)c5sc(N)c(C#N)c45)c(Cl)cc23)C1` (stereo partly drawn) [compound 13, 2-amino-4-(6-chloro-8-fluoro-4-(6-fluoro-6-methyl-1,4-oxazepan-4-yl)-2-(((2R,7aS)-2-fluorotetrahydro-1H-pyrrolizin-7a(5H)-yl)methoxy)quinazo-lin-7-yl)-7-fluorobenzo[b]thio-phene-3-carbonitrile], the IC50 is 32.2 nM in assay [1]; 46.7 nM at KRAS-G12D; 10.4 nM at KRAS-G12V; 21.9 nM on KRAS-G13D; more than 11100 nM on HRAS; more than 11100 nM on NRAS. Besides, the concentration for half-maximal inhibition (IC50) in assay [2] was determined as 208 nM; in assay [3], 152 nM.

Take `N#Cc1c(N)sc2c(F)ccc(-c3c(Cl)cc4c(N5CCOCC(F)(F)C5)nc(OC[C@@]56CCCN5C[C@H](F)C6)nc4c3F)c12` [compound 12, 2-amino-4-(6-chloro-4-(6,6-difluoro-1,4-oxazepan-4-yl)-8-fluoro-2-(((2R,7aS)-2-fluorotetrahydro-1H-pyrrolizin-7a(5H)-yl)methoxy)quinazo-lin-7-yl)-7-fluorobenzo[b]thio-phene-3-carbonitrile]: the half-maximal inhibitory concentration (IC50) was 19.5 nM in assay [1]; 34.2 nM at KRAS-G12D; 11.6 nM on KRAS-G12V; 12.9 nM on KRAS-G13D; more than 11100 nM at HRAS; more than 11100 nM at NRAS. Further, the results for the IC50 in assay [2] and in assay [3] were 75.4 nM and 32.9 nM, respectively.

On to `CN(C)C[C@@]1(COc2nc(N3CCCOCC3)c3cc(Cl)c(-c4ccc(F)c5sc(N)c(C#N)c45)c(F)c3n2)CC1(F)F` [Ex. 24, 2-amino-4-(6-chloro-2-(((R)-1-((dimethylamino)methyl)-2,2-difluorocyclopropyl)methoxy)-8-fluoro-4-(1,4-oxazepan-4-yl)quinazolin-7-yl)-7-fluorobenzo[b]thiophene-3-carbonitrile], for which the IC50 in assay [1] was 30.4 nM; on KRAS-G12D, 51.8 nM; at KRAS-G12V, 9.52 nM; on KRAS-G13D, 28.8 nM; at HRAS it was more than 11100 nM; at NRAS, more than 11100 nM. For the same molecule, the IC50 in assay [2] came to 233 nM; in assay [3], 93.1 nM.

For `CC1COCCCN1c1nc(OC[C@@]23CCCN2C[C@H](F)C3)nc2c(F)c(-c3ccc(F)c4sc(N)c(C#N)c34)c(Cl)cc12` (stereo partly drawn) [compound 5, 2-amino-4-(6-chloro-8-fluoro-2-(((2R,7aS)-2-fluorotetrahydro-1H-pyrrolizin-7a(5H)-yl)methoxy)-4-(3-methyl-1,4-oxazepan-4-yl)quinazolin-7-yl)-7-fluorobenzo[b]thio-phene-3-carbonitrile], the 50% inhibitory concentration (IC50) is 18 nM in assay [1]; 15.2 nM on KRAS-G12D; 6.15 nM at KRAS-G12V; 13.4 nM on KRAS-G13D; more than 11100 nM at HRAS; more than 11100 nM on NRAS. Also, the figures for the IC50 in assay [2] and in assay [3] were 123 nM and 120 nM, respectively.

As to `N#Cc1c(N)sc2c(F)ccc(-c3ncc4c(N5CCCOCC5)nc(OC[C@@]56CCCN5C[C@H](F)C6)nc4c3F)c12` [Ex. 20, 2-amino-7-fluoro-4-(8-fluoro-2-(((2R,7aS)-2-fluorotetrahydro-1H-pyrrolizin-7a(5H)-yl)methoxy)-4-(1,4-oxazepan-4-yl)pyrido[4,3-d]pyrimidin-7-yl)benzo[b]thiophene-3-carbonitrile], the IC50 in assay [1] was 75.5 nM; at KRAS-G12D it was 294 nM; on KRAS-G12V, 60 nM; on KRAS-G13D, 93.1 nM; at HRAS, more than 11100 nM; at NRAS, more than 11100 nM. Moreover, the IC50 in assay [2] came to 1420 nM; in assay [3] it was 510 nM.

Take `N#Cc1c(N)sc2c(F)ccc(-c3c(Cl)cc4c(N5CCOCC(F)C5)nc(OC[C@@]56CCCN5C[C@H](F)C6)nc4c3F)c12` (stereo partly drawn) [compound 11, 2-amino-4-(6-chloro-8-fluoro-4-(6-fluoro-1,4-oxazepan-4-yl)-2-(((2R,7aS)-2-fluorotetrahydro-1H-pyrrolizin-7a(5H)-yl)methoxy)quinazo-lin-7-yl)-7-fluorobenzo[b]thio-phene-3-carbonitrile]: the half-inhibitory concentration (IC50) is 18.2 nM in assay [1]; 8.27 nM on KRAS-G12D; 6.4 nM on KRAS-G12V; 6.85 nM on KRAS-G13D; more than 11100 nM at HRAS; more than 11100 nM on NRAS. The IC50 in assay [2] is 39.9 nM; in assay [3], 21.9 nM.

On to `Cc1cc(N)nc(-c2c(Cl)cc3c(N4CCCOCCC4)nc(OC[C@@]45CCCN4C[C@H](F)C5)nc3c2F)c1C(F)(F)F` [compound 41, 6-(6-chloro-8-fluoro-2-(((2R,7aS)-2-fluorotetrahydro-1H-pyrrolizin-7a(5H)-yl)methoxy)-4-(1,5-oxazocan-5-yl)quinazolin-7-yl)-4-methyl-5-(trifluoromethyl)pyridin-2-amine], for which the 50% inhibitory concentration (IC50) in assay [1] is 56.5 nM; on KRAS-G12D it was 125 nM; on KRAS-G12V it was 46.4 nM; at KRAS-G13D, 75.5 nM; at HRAS it was more than 11100 nM; on NRAS it was more than 11100 nM. Moreover, the 50% inhibitory concentration (IC50) in assay [2] was 348 nM; in assay [3], 512 nM.

These data come from US20260083750A1, “SMALL MOLECULE INHIBITORS OF KRAS PROTEINS” (MERCK SHARP & DOHME LLC, priority 2022, published 2026).
